The results in this text go back to ChEMBL document CHEMBL1201862, “PubChem BioAssay data set” (2004).

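Where inhibition never reached the appropriate level, the endpoint shown equals the highest concentration tested. Otherwise, values were interpolated linearly from a five-concentration, 48-hour dose response in 96-well plates. GI50 is the concentration that inhibits growth by half.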 Activity calls are given as the source filed them. Rule as the data show it: active = GI50 up to about 1.1 µM and inactive = higher.

Assay in all cases: inhibition of tumour cell growth, NCI panel, 48 h
The test system of test [1] is SNB-78.
Test [2] has as its system LXFL 529.
In test [3] the test system is DLD-1.
The test system of test [4] is KM-20L2.
The test system of test [5] is DMS-273.
For test [6], the system named is XF498.
Test [7] concerns DMS-114.
Test [8] relates to HOP-18.
Test [9] deals with RXF 631.

For `COc1cccc(-c2cc(O)c3cc(OC)c(OC)cc3n2)c1`, the GI50 is 29.9 µM (inactive) in [1]; 63.1 µM (inactive) in [2]; 42.3 µM (inactive) in test [3]; 26.6 µM (inactive) in test [4]; 36.3 µM (inactive) in [5].

For `CC1=CC(=O)NP(=O)(Oc2ccc(Cl)cc2)N1` (stereo unspecified), the GI50 in test [1], in test [6], in [2], in test [3], in [7] and in test [4] was > 100 µM (inactive) throughout. Also, the GI50 in test [5] and in test [8] was > 100 µM (inactive) throughout.

As for `C=C1Cc2cc(OC)c(OC)c(OC)c2-c2ccc(SC)c(=O)cc21`, the GI50 in test [1], in test [6], in test [2], in test [3], in [7] and in test [4] was < 0.01 µM (active) in each case. The GI50 is < 0.01 µM (active) in test [5] and 4.92 µM (inactive) in test [8].

On to `Cc1ccc(S(=O)(=O)N[C@H](C(=O)O)c2ccccc2)cc1`, for which the GI50 in test [6], in test [2], in [3], in test [4], in test [9] and in test [5] was > 100 µM (inactive) each time. Also, the GI50 in test [8] is > 100 µM (inactive).

For `C/C(=N\N(c1ccccc1)c1ccccc1)c1c(O)cc(C)oc1=O`, the GI50 in [1] was > 100 µM (inactive); in [2] it was 78.5 µM (inactive); in test [3], 76.2 µM (inactive); in [4] it was > 100 µM (inactive); in test [8], > 100 µM (inactive).

`NC(=O)NC1C(C(N)=O)N(Cc2ccccc2)C(=O)N1Cc1ccccc1` (stereo unspecified): the GI50 was > 100 µM (inactive) in [1]; > 100 µM (inactive) in test [6]; > 100 µM (inactive) in [2]; > 100 µM (inactive) in test [3]; > 100 µM (inactive) in test [7]; 46 µM (inactive) in test [4]. Moreover, the GI50 in [9], in test [5] and in test [8] was > 100 µM (inactive) throughout.

`O=[N+]([O-])c1cccc(C2SCc3nc4ccccc4n32)c1` (stereo unspecified): the GI50 in test [1] is > 100 µM (inactive); in [6], > 10 µM (inactive); in [2], 55.8 µM (inactive); in test [3] it was 62.8 µM (inactive); in test [7] it was 53.5 µM (inactive); in [4], > 100 µM (inactive). The GI50 was 85.7 µM (inactive) in test [5] and > 100 µM (inactive) in test [8].

Turning to `N/N=C1\C(=O)N(Cc2ccccc2)C(=O)C1C(=O)NCc1ccccc1` (stereo unspecified), the GI50 in test [1], in test [2], in [3], in [7], in test [4] and in test [8] was > 100 µM (inactive) in each case.

`CCOC(=O)CCC(NC(=O)c1ccc(NC(OC)c2nc3cc(C(F)(F)F)ccc3nc2-c2ccccc2)cc1)C(=O)OCC` (stereo unspecified): the GI50 was 19.1 µM (inactive) in [1]; 7.6 µM (inactive) in [2]; 9.4 µM (inactive) in test [3]; 12.7 µM (inactive) in [7]; 13.6 µM (inactive) in test [4]; 13.7 µM (inactive) in test [9]. The GI50 was 7.36 µM (inactive) in test [5] and 18.5 µM (inactive) in test [8].

As to `O=C1C(c2ccccc2)=C(c2ccccc2)[C@H](c2ccccc2)[C@]1(Cc1nnn(-c2ccc([N+](=O)[O-])cc2)c1N1CCOCC1)c1ccccc1`, the GI50 was > 37.5 µM (inactive) in test [1]; 8.3 µM (inactive) in test [6]; 24.4 µM (inactive) in test [2]; > 37.5 µM (inactive) in test [3]; > 37.5 µM (inactive) in test [7]; > 37.5 µM (inactive) in test [4]. Moreover, the GI50 in test [9] was > 37.5 µM (inactive); in test [5], 24.9 µM (inactive); in [8] it was > 37.5 µM (inactive).

On to `CC(C)Cc1ccc(C(C)/C=C2\CCC(CN3CCCCC3)C2=O)cc1` (stereo unspecified), for which the GI50 is 5.74 µM (inactive) in [1]; 6.78 µM (inactive) in test [6]; 1.91 µM (inactive) in [2]; 2.33 µM (inactive) in test [3]; 2.22 µM (inactive) in test [7]; 10.4 µM (inactive) in test [4]. Besides, the GI50 in [5] was 2.86 µM (inactive); in [8], 16.6 µM (inactive).

As for `Cc1cc(C(=O)NCCN(C)C)c2nc3ccccc3nc2c1`, the GI50 in test [1] is 12.8 µM (inactive); in test [2], 8.3 µM (inactive); in [3], 4.08 µM (inactive); in [7], 3.19 µM (inactive); in test [4] it was 3.1 µM (inactive); in test [5] it was 3.87 µM (inactive). In addition, the GI50 in [8] is > 35.1 µM (inactive).

Turning to `N#CC(NNC(=O)Cc1ccccc1)c1ccc([N+](=O)[O-])cc1` (stereo unspecified), the GI50 in test [1] is > 100 µM (inactive); in test [2], > 100 µM (inactive); in test [3] it was > 100 µM (inactive); in test [5], > 100 µM (inactive); in [8], 82.8 µM (inactive).

With `CCCCCCCCCCCC(=O)OCC1OC(n2cc(F)c(=O)[nH]c2=O)C(NC(=O)OCc2ccccc2)C(O)C1O` (stereo unspecified), the GI50 was 28.9 µM (inactive) in [1], 18.6 µM (inactive) in test [2], 21.4 µM (inactive) in test [4] and 19 µM (inactive) in [5].

On to `Cc1cccc(C(=O)O)c1C(=O)c1cccc2ccccc12`, for which the GI50 was > 100 µM (inactive) in [1]; > 100 µM (inactive) in test [2]; > 100 µM (inactive) in test [3]; > 100 µM (inactive) in [7]; 33.5 µM (inactive) in [4]; > 100 µM (inactive) in test [5]. Further, the GI50 in test [8] is > 100 µM (inactive).

Consider `CC(Oc1ccc(OCC2CCCCC2)cc1)C(=O)OCC(=O)c1ccc(-c2ccccc2)cc1` (stereo unspecified), for which the GI50 in test [1], in test [6], in test [2], in test [3], in test [7] and in [5] was > 100 µM (inactive) in each case. Also, the GI50 in [8] is 22.6 µM (inactive).

For the compound `CC(C)C(/C=C/c1ccccc1)=N\NC(=O)N/N=C(/C=C/c1ccccc1)C(C)C`, the GI50 in test [1] was 28.1 µM (inactive); in test [6] it was 26.4 µM (inactive); in [2] it was 23.2 µM (inactive); in test [3], 34.8 µM (inactive); in [7], 13 µM (inactive); in test [4] it was 22.5 µM (inactive). In test [5], the GI50 is 19.8 µM (inactive).

In the case of `CCOC(=O)C1=C(OC(OCC)C(CC)[Se]c2ccccc2)CCC1` (stereo unspecified), the GI50 in test [1] was 24.5 µM (inactive); in [6] it was 23.1 µM (inactive); in test [2], 18.7 µM (inactive); in test [3], 19.3 µM (inactive); in [7], 4.62 µM (inactive); in test [4] it was 29.8 µM (inactive). Besides, the figures for the GI50 in test [9], in [5] and in [8] were 10.3 µM (inactive), 13.2 µM (inactive) and 23.1 µM (inactive), respectively.

Consider `O=C(CN(Cc1ccccc1)Cc1ccccc1)N1CCc2c([nH]c3ccccc23)C1c1cccnc1` (stereo unspecified), for which the GI50 in test [1] was 15.8 µM (inactive); in test [6], 13.9 µM (inactive); in [2] it was 6.67 µM (inactive); in [3], 6.4 µM (inactive); in test [7], 4.35 µM (inactive); in test [4] it was 6.92 µM (inactive). For the same compound, the GI50 is 4.74 µM (inactive) in [5] and 46.5 µM (inactive) in [8].

In the case of `N#CCCc1nc2ccc(Br)cc2c(=O)n1CCO`, the GI50 was > 100 µM (inactive) in test [1]; 95.7 µM (inactive) in [6]; > 100 µM (inactive) in [2]; > 100 µM (inactive) in test [3]; > 100 µM (inactive) in test [7]; > 100 µM (inactive) in test [9].

Take `CC(C)(C)C(=O)O[C@@H]1COC2C(O)COC21` (stereo partly specified): the GI50 in test [1], in test [6], in test [2], in [3], in test [7] and in test [9] was > 100 µM (inactive) throughout. Further, the GI50 in test [5] and in test [8] was > 100 µM (inactive) each time.

For `COc1cc2c(cc1OC)[C@]1(O)C(=O)c3ccc4c(c3O[C@@H]1CO2)C[C@H](C(C)(C)O)O4`, the GI50 in test [1] is > 100 µM (inactive); in test [6], > 100 µM (inactive); in [2], 56.1 µM (inactive); in test [3], > 100 µM (inactive); in test [7] it was 3.61 µM (inactive); in test [4] it was > 100 µM (inactive). Besides, the GI50 in test [5] is > 100 µM (inactive).
